According to patent US20220202943A1, “TOPICAL COMPOSITIONS FOR SKIN COMPRISING A CELL PENETRATING PEPTIDE AND METHODS OF USING THE SAME” (ImDerma Laboratories Co. Ltd., priority 2020, published 2022):
Where no end group is shown, it is not given here.

Columns and labels:
Type in all cases: cell-based, human
HaCaT cells [1] = experiment: Intracellular ROS induced by H2O2 in HaCaT cells, DCFDA fluorescence assay
Method: (§1) Following the removal of DMEM medium in the 96-well plate, 100 uL of 1 μM peptide X and 100 uL of tea polyphenols (0.01%, 0.05% or 0.1%), were added in the 96-well plate. After 2, 4, 6, 16 or 24 hours of reaction, the peptide X and tea polyphenols were removed and then DMEM medium with 1.2 mM H2O2 was added for 2 hours of reaction in dark to induce intracellular ROS in the HaCaT cells. After the above reaction, DMEM medium with 1.2 mM H2O2 was removed from the 96-well plate and 100 μL of 10 μM DCFDA (2′,7′—dichlorofluorescin diacetate) was added for half an hour of reaction to measure the levels of intracellular ROS in HaCaT cells using fluorescence assay. Following the removal of DCFDA, the treated cells were washed with 200 μL of PBS. Subsequently, after PBS was removed, 100 μL of transparent DMEM medium was added and absorbance at 488/520 nm was measured to determinate the levels of intracellular ROS. After the above measurement, the transparent DMEM medium was removed and then 100 μL of 1 mg/mL MTT was added for 2 hours of reaction; subsequently, the absorbance at 595 nm was measured for calculating the cell viability.
EUK134™ (0.12 μM, 0.23 μM or 2.35 μM) or a mixture of peptide X (1 μM) and EUK134™ (0.12 μM or 0.23 μM), were added in HaCaT cells for 8 hours of reaction. Following the removal of EUK134™ and the mixture of peptide X and EUK134™, 1.2 mM H2O2 was added to induce intracellular ROS in the HaCaT cells and then the levels of intracellular ROS were detected using DCFDA. After the detection of the levels of intracellular ROS, the cell viability was confirmed using MTT assay.
Resveratrol (6.25 μM, 12.5 μM or 25 μM) or a mixture of peptide X (1 μM) and resveratrol (6.25 μM, 12.5 μM or 25 μM), were added in HaCaT cells for different time of reaction. Following the removal of resveratrol and the mixture of peptide X and resveratrol, 1.2 mM H2O2 was added to induce intracellular ROS in the HaCaT cells and then the levels of intracellular ROS were detected using DCFDA. After the detection of the levels of intracellular ROS, the cell viability was confirmed using MTT assay.

HaCaT cells [2] = experiment: Cell viability of HaCaT cells, MTT assay; details: 1.0 μM peptide X
Method: as §1
EUK134™ (0.12 μM, 0.23 μM or 2.35 μM) or a mixture of peptide X (1 μM) and EUK134™ (0.12 μM or 0.23 μM), were added in HaCaT cells for 8 hours of reaction. […]

type I pro-collagen = experiment: Type I pro-collagen level in Hs68 cells, ELISA; details: TGF-β 10 ng/mL
Method: In order to confirm if the peptide X is capable of delivering TGF-β into skin cells, Hs68 cells were seeded in a 6-well plate. Following the removal the medium in the 6-well plate, TGF-β (10 ng/mL), peptide X (1.0 μM) or a mixture of TGF-β (10 ng/mL) and peptide X (1.0 μM) were added in the 6-well plate. After 6, 12 or 24 hours of reaction, the level of type I pro-collagen in the cells was confirmed using ELISA kit with human pro-collagen 1 alpha 1 capture antibody and human pro-collagen 1 alpha 1 detector antibody.

Molecule: Oc1ccc(/C=C/c2cc(O)cc(O)c2)cc1 [resveratrol, reference compound]
- reduction of level of intracellular ROS induced by H2O2 (HaCaT cells [1]; resveratrol 6.25, 12.5 or 25 μM without peptide X, no significant difference among concentrations): 75˜80%

Molecule: NYRWRCKNQN [peptide X, Asn-Tyr-Arg-Trp-Arg-Cys-Lys-Asn-Gln-Asn]
- cytotoxicity to HaCaT cells (HaCaT cells [2]): no cytotoxicity

Molecule: TGF-β
- increase of expression of type I pro-collagen (type I pro-collagen): ~20%

Molecule: ethylbisiminomethylguaiacol manganese chloride [EUK134™]
- reduction of level of intracellular ROS induced by H2O2 (HaCaT cells [1]; 0.12 μM EUK134 without peptide X, 8 hours of treatment): 50%
- reduction of level of intracellular ROS (HaCaT cells [1]; 0.23 μM EUK134 without peptide X, 8 hours of treatment): 50%
- level of intracellular ROS induced by H2O2 (HaCaT cells [1]; EUK134 0.12, 0.23 or 2.35 μM without peptide X, with the increase of concentration, 8 hours): slightly decreased
